The values that follow come from patent US20230416168A1 (EUROCHEM ANTWERPEN, priority 2020, published 2023).

Like-named read-outs stand apart in the source and are kept apart here.

The subject of one assay is Nitrosomonas europaea. Kind of assay: Nitrification inhibition assay with Nitrosomonas europaea (nitrite level after 24 h). The assay is classed as cell-based. Particulars: for IC50 / activity at 100 µM / activity at 50 µM: Nitrosomonas europaea; for activity at 100 µM / activity at 50 µM: 24 h, read-out: Nitrification (%) at tested concentration (0 = maximum activity); for activity at 50 µM: tested concentration 50 μM. The procedure:
(§1) The compounds of formula (I) and (II) and (III)/(IV) were tested for their nitrification inhibition effect in two screens, using assays with the nitrifying bacteria N. europaea and N. multiformis. In practice, ammonium and candidate nitrification inhibitors (at 100 μM) were added to a dense bacterial culture in multiwell culture plates and after 24 h of incubation, the nitrite level was measured. To normalize for differences between batches of cultures and multiwell culture plates, for each well a relative nitrification was calculated that was normalized towards both the negative and positive controls (see “Material and Methods” below for full details).
(§2) Nitrite (NO2−) was measured using the Griess reagent (Product number: G4410, Griess reagent (modified), Sigma-Aldrich). Equal volumes of the sample or a diluted sample and the Griess reagent were mixed a transparent flat bottom multi-well plate and incubated in the dark at room temperature for 10 minutes. Absorbance values at 540 nm were measured spectrophotometrically (EnVision, Perkin Elmer®) and used to calculate the [NO2−] by use of a standard curve.
To prepare a high-throughput nitrification inhibition assay using N. europaea, late-log phase cultures were subcultivated two days before the assay. Just before the assay, the cultures were 5 times overconcentrated with fresh growth medium after centrifugation (4000 rpm, 15 min, 5° C.) in 50 mL centrifuge tubes (Cat. No. 430829, CentriStar™ Conical Centrifuge Tubes, Corning®). Per batch, all the cultures were pooled in one sterile Schott bottle and subsequently dispensed into 384-well plates (Cat. No. 781086, CELL-STAR® plate, Greiner Bio-One; 50 μl/well) by use of a dispenser (Multidrop™ Combi Reagent Dispenser, Thermo Scientific™) that was first flushed with growth medium. Specifically for the high-throughput screen for new nitrification inhibitors, 0.5 μl of 99.99% DMSO (negative control—final concentration 1%) was added to the outer two columns on the left side of the plate and 0.5 μl of 10 mM DMP (3,4-dimethylpyrazole, positive control—final concentration 100 μM) was added to the outer two columns on the right side manually. Finally, 0.5 μl of candidate nitrification inhibitors (5 mM stock solutions in 99.99% DMSO—final concentration 50 μM) were added to the central wells using a pin tool on a Tecan robot (Freedom EVO®, Tecan). In between additions, the pins were washed in sequence with 99.5% DMSO, MilliQ water and 100% ethanol and air-dried. All plates were separately wrapped in Parafilm. Stacks of 4 plates were put on top of a 96-well plate filled with 100 μl MilliQ per well, covered with aluminum foil and shaken at 150 rpm at 28° C. 24 h later, NO2− production was assessed. For this, the samples were first 200 times diluted by pipetting 1.5 μl of samples into 300 μl of fresh growth medium in intermediate plates (Cat. No. 353077, Falcon® 96-well Clear Round Bottom Microplate, Corning®), to then mix 15 μl of the diluted samples with 15 μl Griess reagent in the wells of a transparent, flat bottom 384-well plate (Cat. No. X^7001, Low Profile Microplate, Molecular Devices) that was measured spectrophotometrically at 540 nm (EnVision, Perkin Elmer®).
(§3) To assess the efficacy of the compounds (in terms of nitrification inhibition) and to enable comparison between plates and batches of cultures, we calculated the relative nitrification. More in detail, all nitrite results were normalized towards both a negative control, containing no compound, and a positive control, containing the benchmark (100 μM DMP), using Equation 1. This normalization was done per multi-well plate and each plate contained 32 positive and 32 negative controls.
IC50 values, that is the concentration that inhibits 50% of the nitrification, were calculated after fitting a logistic curve to 8-point dose response data, using doses between 2 and 100 μM with 1.75 fold steps. […]

The next assay relates to Nitrosospira multiformis. Kind of assay: Nitrification inhibition assay with Nitrosospira multiformis (nitrite level after 24 h). The class given is cell-based. The following applies: for IC50 / activity at 100 µM / activity at 50 µM: Nitrosospira multiformis; for activity at 100 µM / activity at 50 µM: 24 h, read-out: Nitrification at tested concentration (0 = maximum activity); for activity at 50 µM: tested concentration 50 μM. How it is done:
as §1, §2
Cultures were first 5 times overconcentrated in fresh 181-medium by centrifugation (4000 rpm, 15 min, 5° C.) in 50 mL centrifuge tubes (Cat. No. 430829, CentriStar™ Conical Centrifuge Tubes, Corning®). Per batch, all the cultures were pooled in one sterile Schott bottle and subsequently dispensed in 384-well plates (Cat. No. 781086, CELLSTAR® plate, Greiner BioOne; 50 μl/well) by use of a dispenser (Multidrop™ Combi Reagent Dispenser, Thermo Scientific™) that was first flushed with 181-medium. 0.5 μl of 99.99% DMSO (negative control—final concentration […] was added to the outer two columns on the left side of the plate and 0.5 μl of 10 mM DMP (3,4-dimethylpyrazole, positive control—final concentration 100 μM) was added to the outer two columns on the right side manually. Finally, 0.5 μl of candidate nitrification inhibitors (5 mM stock solutions in 99.99% DMSO—final concentration 50 μM) were added to the central wells using a pin tool on a Tecan robot (Freedom EVO®, Tecan). In between additions, the pins were washed in sequence with 99.5% DMSO, MilliQ water and 100% ethanol and air-dried. All plates were separately wrapped in Parafilm. Stacks of 4 plates were put on top of a 96-well plate filled with 100 μl MilliQ per well, covered with aluminum foil and shaken (±150 rpm) at 30° C. 24 h later, NO2− production was assessed. For this, the samples were first 100 times diluted by pipetting 3 μl of samples into 300 μl fresh growth medium in intermediate plates (Cat. No. 353077, Falcon® 96-well Clear Round Bottom Microplate, Corning®) to then mix 15 μl of the diluted samples with 15 μl Griess reagent in the wells of a transparent, flat bottom 384-well plate (Cat. No. X^7001, Low Profile Microplate, Molecular Devices) that was measured spectrophotometrically at 540 nm (EnVision, Perkin Elmer®).
as §3
IC50 values, that is the concentration that inhibits 50% of the nitrification, were calculated after fitting a logistic curve to 8-point dose response data, using doses between 2 and 100 μM with 1.75 fold steps. If a concentration of 2 μM already inhibited nitrification, the IC50 value could not be calculated. In that case, IC50 values represent the dose that gives inhibition closest to 50%.
The compounds of formula (I) and (II) were tested for their nitrification inhibition effect in two screens, using assays with the nitrifying bacteria N. europaea and N. multiformis. […]

Where [1] appears, read: 8-point dose response, 2 to 100 μM, read-out: IC50.
Setting [2] is: tested concentration 100 μM, normalized to DMSO (100%) and 100 μM DMP (0%).
Where [3] appears, read: normalized to DMSO (100%) and 100 μM DMP (0%).

A word on the IC50: it is the concentration that inhibits the measured activity by half. `CCN(CN1CCSC1=S)C1CC1` [Example 2]: the IC50 with Nitrosomonas europaea (setting [1]) and in the assay on Nitrosospira multiformis (setting [1]) was less than 2 µM in each case. The activity at 100 µM with Nitrosomonas europaea (setting [2]) and in the assay with Nitrosospira multiformis (setting [2]) was 0% throughout.

As to `CC1CSC(=S)N1` (stereo not shown) [Example 3], the IC50 in the assay with Nitrosomonas europaea (setting [1]) was less than 3.5 µM; with Nitrosospira multiformis (setting [1]), less than 2 µM. The activity at 100 µM in the assay with Nitrosomonas europaea (setting [2]) and in the assay on Nitrosospira multiformis (setting [2]) was 0% each time.

With `CC1CNC(=S)S1` (stereo not shown) [Example 4], in the assay with Nitrosomonas europaea, the IC50 is less than 2 µM and the activity at 100 µM stood at 0%. Also, in the assay with Nitrosospira multiformis, the IC50 is less than 2 µM and the activity at 100 µM worked out at 0%.

With `O=C1NCCS1` [Example 8], the IC50 in the assay with Nitrosomonas europaea (setting [1]) and with Nitrosospira multiformis (setting [1]) was less than 100 µM in each case. For the same compound, the values for the activity at 100 µM in the assay on Nitrosomonas europaea (setting [2]) and in the assay with Nitrosospira multiformis (setting [2]) were 47% and 31%, respectively.

With `O=C(CSC1=NCCS1)NCc1cc(Br)cs1` [Example 11], in the assay with Nitrosospira multiformis (setting [1]), the IC50 was less than 20 µM. Moreover, in the assay on Nitrosospira multiformis (setting [2]), the activity at 100 µM came out at 0%.

On to `COc1cccc(-c2nc(CSC3=NCCS3)cs2)c1OC` [Example 12], for which the IC50 with Nitrosomonas europaea (setting [1]) is less than 100 µM; in the assay with Nitrosospira multiformis (setting [1]), less than 20 µM. The figures for the activity at 100 µM in the assay on Nitrosomonas europaea (setting [2]) and in the assay with Nitrosospira multiformis (setting [2]) were 0% and 11%, respectively.

For `CCn1c(CSC2=NCCS2)nc2cc(F)ccc21` [Example 13], the activity at 50 µM in the assay on Nitrosomonas europaea (setting [3]) was found to be 73%; with Nitrosospira multiformis (setting [3]) it was 0%.

With `CC1CSC(SCc2cc(=O)n3ccsc3n2)=N1` (stereo not shown) [Example 14], the IC50 with Nitrosomonas europaea (setting [1]) was less than 57 µM; in the assay with Nitrosospira multiformis (setting [1]), less than 20 µM. For the same compound, the activity at 100 µM in the assay with Nitrosomonas europaea (setting [2]) and in the assay with Nitrosospira multiformis (setting [2]) was 0% each time.

In the case of `COc1cc(C(=O)CSC2=NCCS2)cc(OC)c1OC` [Example 15], the activity at 50 µM with Nitrosomonas europaea (setting [3]) amounted to 78%; in the assay on Nitrosospira multiformis (setting [3]), 13%.

In the case of `Cc1cccc(CSC2=NCCS2)c1` [Example 17], the activity at 50 µM turned out to be 100% in the assay with Nitrosomonas europaea (setting [3]) and 36% in the assay with Nitrosospira multiformis (setting [3]).

Regarding `COc1ccccc1Nc1nc(N)nc(CSC2=NCCS2)n1` [Example 20], the activity at 50 µM with Nitrosomonas europaea (setting [3]) came to 79%; in the assay on Nitrosospira multiformis (setting [3]) it was 42%.

Consider `Cc1csc(=S)[nH]1` [Example 26, 4-methyl-1,3-thiazole-2-thiol], for which the “Average nitrification [%] in Nitrosomonas europaea” value in the assay on Nitrosomonas europaea (2 μM) is 91%; in the assay on Nitrosomonas europaea (3.5 μM) it was 84%; with Nitrosomonas europaea (6 μM) it was 80%; in the assay on Nitrosomonas europaea (11 μM), 83%; with Nitrosomonas europaea (19 μM) it was 78%; with Nitrosomonas europaea (33 μM), 71%. For the same compound, the “Average nitrification [%] in Nitrosomonas europaea” value came to 50% in the assay on Nitrosomonas europaea (57 μM) and 0% in the assay with Nitrosomonas europaea (100 μM). For the same compound, the 50% inhibitory concentration (IC50) in the assay with Nitrosomonas europaea (setting [1]) is 38 µM; in the assay with Nitrosospira multiformis (setting [1]), 2.1 µM. The activity at 100 µM with Nitrosomonas europaea (setting [2]) and in the assay with Nitrosospira multiformis (setting [2]) was 0% throughout. Also, the “Average nitrification [%] in Nitrosospira multiformis” value came out at 51% in the assay with Nitrosospira multiformis (2 μM); 27% in the assay with Nitrosospira multiformis (3.5 μM); 6% in the assay on Nitrosospira multiformis (6 μM); 2% with Nitrosospira multiformis (11 μM); 0% in the assay on Nitrosospira multiformis (19 μM); 0% in the assay on Nitrosospira multiformis (33 μM). Also, the “Average nitrification [%] in Nitrosospira multiformis” value in the assay with Nitrosospira multiformis (57 μM) and in the assay on Nitrosospira multiformis (100 μM) was 0% throughout.

For the compound `CCSc1nc(CC(=O)O)cs1` [Example 27], the IC50 in the assay with Nitrosomonas europaea (setting [1]) and in the assay with Nitrosospira multiformis (setting [1]) was more than 100 µM throughout. Further, the values for the activity at 100 µM in the assay on Nitrosomonas europaea (setting [2]) and in the assay with Nitrosospira multiformis (setting [2]) were 62% and 77%, respectively.

For `S=c1[nH]cc(Cc2ccccc2)s1` [Example 28], the IC50 is more than 100 µM with Nitrosomonas europaea (setting [1]) and 12 µM in the assay with Nitrosospira multiformis (setting [1]). Also, the values for the activity at 100 µM in the assay with Nitrosomonas europaea (setting [2]) and with Nitrosospira multiformis (setting [2]) were 65% and 0%, respectively.

As for `CSc1nc(N)c(C#N)s1` [Example 29], the IC50 in the assay with Nitrosomonas europaea (setting [1]) is 28 µM; in the assay on Nitrosospira multiformis (setting [1]), more than 100 µM. In addition, the values for the activity at 100 µM in the assay on Nitrosomonas europaea (setting [2]) and with Nitrosospira multiformis (setting [2]) were 0% and 61%, respectively.

For `S=c1[nH]c(-c2ccccc2)cs1` [Example 30], the IC50 with Nitrosomonas europaea (setting [1]) is 42 µM; in the assay on Nitrosospira multiformis (setting [1]) it was 36 µM. The figures for the activity at 100 µM in the assay on Nitrosomonas europaea (setting [2]) and with Nitrosospira multiformis (setting [2]) were 21% and 0%, respectively.
